Experiments:
Acute toxicity in mice = conditions: mouse, in vivo, po, acute toxicity, read-out: 50 DL
[1] = test system: pontogeniculo-occipital points (P.G.O.) caused by reserpine; experiment: Test C: diminution in density of reserpine-induced pontogeniculo-occipital (P.G.O.) points in the cat; assay type: in vivo; conditions: Felis catus, po, reserpine 0.5 mg/kg, read-out: Test C 50 DE
Procedure: Diminution in the density of pontogeniculo-occipital points (P.G.O.) caused by injecting a cat with 0.5 mg/kg of reserpine, according to the mode of operation described by COSTON A. and GOURET C. in J. Pharmacol. (PARIS), (1976), 7, 409.

[2] = test system: generalised trembling caused by an intraperitoneal injection of dl-5-hydroxytryptophane; experiment: Test A: potentiation of generalised trembling caused by dl-5-hydroxytryptophane in the mouse; assay type: in vivo; conditions: po; mouse, p.o.; dl-5-hydroxytryptophane 200 mg/kg i.p.; read-out: Test A 50 DE
Procedure: Potentiation in a mouse of generalised trembling caused by an intraperitoneal injection (200 mg/kg) of dl-5-hydroxytryptophane, according to the mode of operation described by GOURET C. and RAYNAUD G. in the J. Pharmacol. (PARIS), (1974), 5, 231.

[3] = test system: ptosis observed one hour after an intravenous injection of reserpine; experiment: Test B: antagonism of reserpine-induced ptosis in the mouse; assay type: in vivo; conditions: po, 1 h, p.o., reserpine 2 mg/kg i.v., read-out: Test B 50 DE
Procedure: Antagonism in relation to ptosis observed one hour after an intravenous injection (2 mg/kg) of reserpine was given to a mouse, according to the mode of operation described by GOURET C. and THOMAS J. in J. Pharmacol. (PARIS), (1973), 4, 401.

## CCOc1ccc(N2CC(CO)OC2=O)cc1 (centres unmarked) [compound 760037]
Acute toxicity in mice
  LD50: > 2000 mg/kg
[1]
  ED50: 5.4 mg/kg
[2]
  ED50: 16 mg/kg
[3]
  ED50: 40 mg/kg

## CSc1ccc(N2CC(CO)OC2=O)cc1 (centres unmarked) [compound 760082]
Acute toxicity in mice
  LD50: > 2000 mg/kg
[1]
  ED50: 8.4 mg/kg
[2]
  ED50: 22 mg/kg
[3]
  ED50: 18 mg/kg

## O=C1OC(CO)CN1c1ccc(OCc2ccccc2)cc1 (centres unmarked) [compound 760167, 5-hydroxymethyl 3-p-benzyloxyphenyl 2-oxazolidinone]
Acute toxicity in mice
  LD50: > 2000 mg/kg
[1]
  ED50: 15.2 mg/kg
[2]
  ED50: 9.5 mg/kg
[3]
  ED50: 3.3 mg/kg

## N#Cc1ccc(N2CC(CO)OC2=O)cc1 (centres unmarked) [compound 760271]
Acute toxicity in mice
  LD50: 1050 mg/kg
[1]
  ED50: 11 mg/kg
[2]
  ED50: 20 mg/kg
[3]
  ED50: 11 mg/kg

## CCCCOc1ccc(N2CC(CO)OC2=O)cc1 (centres unmarked) [compound 760304]
Acute toxicity in mice
  LD50: > 2000 mg/kg
[1]
  ED50: 6.1 mg/kg
[2]
  ED50: 5 mg/kg
[3]
  ED50: 5 mg/kg

Source: patent publication US4150029A, “3-Aryl 2-oxazolidinones, their process of preparation and their therapeutical application” (Delalande S.A., priority 1976, dated 1979)
